“And” between values parts separate entries of the source, which are not always exact repeats. Equal entries are not always repeated. Inconclusive results and toxic doses are left out. The calls were made as follows: active = survival T/C of 150% or more; inactive = T/C below 125% in these data.
Test system: BDF1 mice, P388 leukemia ip, median survival T/C
Experiment: NCI In Vivo Anticancer Drug Screen. Data for tumor model P388 Leukemia (intraperitoneal) in B6D2F1 (BDF1) mice
Details: endpoint: median survival time, higher = longer survival
In short: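 T/C = treated-group survival ÷ vehicle-control survival; tumour transplanted into mice before dosing.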

[1] = dose: 25.0 mg/kg/injection, schedule: Q01DX009 (ip), vehicle: Klucel (hydroxypropylcellulose) (HPC)
[2] = dose: 50.0 mg/kg/injection, schedule: Q01DX009 (ip), vehicle: Klucel (hydroxypropylcellulose) (HPC)
[3] = dose: 100.0 mg/kg/injection, schedule: Q01DX009 (ip), vehicle: Klucel (hydroxypropylcellulose) (HPC)
[4] = dose: 200.0 mg/kg/injection, schedule: Q01DX009 (ip), vehicle: Klucel (hydroxypropylcellulose) (HPC)
[5] = dose: 400.0 mg/kg/injection, schedule: Q01DX009 (ip), vehicle: Klucel (hydroxypropylcellulose) (HPC)
[6] = dose: 100.0 mg/kg/injection, schedule: Q04DX003 (ip), vehicle: saline with Tween-80
[7] = dose: 200.0 mg/kg/injection, schedule: Q04DX003 (ip), vehicle: saline with Tween-80
[8] = dose: 400.0 mg/kg/injection, schedule: Q04DX003 (ip), vehicle: saline with Tween-80
[9] = dose: 100.0 mg/kg/injection, schedule: Q01DX009 (ip), vehicle: saline with Tween-80
[10] = dose: 200.0 mg/kg/injection, schedule: Q01DX009 (ip), vehicle: saline with Tween-80
[11] = dose: 400.0 mg/kg/injection, schedule: Q01DX009 (ip), vehicle: saline with Tween-80
[12] = dose: 50.0 mg/kg/injection, schedule: Q01DX009 (ip), vehicle: saline with Tween-80
[13] = dose: 100.0 mg/kg/injection, schedule: Q04DX003 (ip), vehicle: saline
[14] = dose: 200.0 mg/kg/injection, schedule: Q04DX003 (ip), vehicle: saline
[15] = dose: 50.0 mg/kg/injection, schedule: Q04DX003 (ip), vehicle: saline

Measured: T/C

CCCCCCCCOC(=O)c1[nH]cnc1/N=N\N(C)C
inactive: dose: 12.5 mg/kg/injection, schedule: Q01DX009 (ip), vehicle: Klucel (hydroxypropylcellulose) (HPC) 95 % of control | [1] 95 % of control | [2] 90 % of control

CCOC(=O)c1cnc(SC)nc1NCc1ccccc1Cl
inactive: [3] 100 % of control | [4] 100 % of control | [5] 100 % of control

O=C(O)C(Br)C(Br)c1ccccc1 (centres undefined)
inactive: [6] 100 % of control | [7] 100 % of control | [8] 109 % of control

CN(C)C(=O)C1CCC1
inactive: [9] 104 % of control | [10] 90 % of control | [11] 113 % of control

O=C(OCCCCOC(=O)c1cccc([N+](=O)[O-])c1)c1cccc([N+](=O)[O-])c1
inactive: dose: 3.0 mg/kg/injection, schedule: Q04DX003 (ip), vehicle: saline with Tween-80 115 % of control | dose: 6.0 mg/kg/injection, schedule: Q04DX003 (ip), vehicle: saline with Tween-80 110 % of control | dose: 12.0 mg/kg/injection, schedule: Q04DX003 (ip), vehicle: saline with Tween-80 120 % of control

COc1ccccc1/C=N\NC(C)=O
inactive: [1] 96 % of control | dose: 25.0 mg/kg/injection, schedule: Q04DX003 (ip), vehicle: Klucel (hydroxypropylcellulose) (HPC) 86 % of control | [2] 107 % of control | [3] 92 % of control | dose: 100.0 mg/kg/injection, schedule: Q04DX003 (ip), vehicle: Klucel (hydroxypropylcellulose) (HPC) 86 % of control

CCCC(=O)c1ccco1
inactive: [12] 101 % of control

CCCCCCOC(CN(C)C)C(Cl)(Cl)Cl (centres undefined)
inactive: [12] 124 % of control | [9] 107 % of control | [10] 116 % of control

CC(=O)c1cccc(OCC(O)CN(C(C)C)C(C)C)c1 (centres undefined)
inactive: [13] 104 % of control | [14] 109 % of control

CCN=C(N)N=C(N)N
inactive: dose: 100.0 mg/kg/injection, schedule: Q01DX001 (ip), vehicle: saline 102 % of control

CC[CH2][Pb]([Cl])([CH2]CC)[CH2]CC
inactive: dose: 0.18 mg/kg/injection, schedule: Q01DX009 (ip), vehicle: DMSO 87 % of control | dose: 0.37 mg/kg/injection, schedule: Q01DX009 (ip), vehicle: DMSO 109 % of control | dose: 0.75 mg/kg/injection, schedule: Q01DX009 (ip), vehicle: DMSO 102 % of control

c1cc[c]([Pb]([c]2ccccc2)([c]2ccccc2)[n]2ccc3ccccc32)cc1
inactive: dose: 0.78 mg/kg/injection, schedule: Q01DX009 (ip), vehicle: saline 100 % of control | dose: 1.05 mg/kg/injection, schedule: Q01DX009 (ip), vehicle: Klucel (hydroxypropylcellulose) (HPC) 103 % of control | dose: 1.05 mg/kg/injection, schedule: Q01DX009 (ip), vehicle: other 108 % of control | dose: 2.05 mg/kg/injection, schedule: Q01DX009 (ip), vehicle: saline 115 % of control | dose: 2.08 mg/kg/injection, schedule: Q01DX009 (ip), vehicle: Klucel (hydroxypropylcellulose) (HPC) 94 % of control | dose: 2.08 mg/kg/injection, schedule: Q01DX009 (ip), vehicle: other 108 % of control and 109 % of control | dose: 3.12 mg/kg/injection, schedule: Q01DX009 (ip), vehicle: Klucel (hydroxypropylcellulose) (HPC) 108 % of control | dose: 3.12 mg/kg/injection, schedule: Q01DX009 (ip), vehicle: other 100 % of control | dose: 4.68 mg/kg/injection, schedule: Q01DX009 (ip), vehicle: Klucel (hydroxypropylcellulose) (HPC) 109 % of control

CN1C(=O)c2ccccc2CC12c1ccccc1C(=O)N2C (centres undefined)
inactive: dose: 50.0 mg/kg/injection, schedule: Q01DX005 (ip), vehicle: saline with Tween-80 86 % of control | dose: 200.0 mg/kg/injection, schedule: Q01DX005 (ip), vehicle: saline with Tween-80 86 % of control

CC(C)N(C)Cc1ccccc1Sc1ccccc1CN(C)C(C)C
inactive: dose: 100.0 mg/kg/injection, schedule: Q01DX001 (ip), vehicle: other 108 % of control | dose: 200.0 mg/kg/injection, schedule: Q01DX001 (ip), vehicle: other 107 % of control | dose: 400.0 mg/kg/injection, schedule: Q01DX001 (ip), vehicle: other 97 % of control

Cc1cc(C)c(S(=O)(=O)OCCCl)c(C)c1
inactive: dose: 50.0 mg/kg/injection, schedule: Q01DX005 (ip), vehicle: Klucel (hydroxypropylcellulose) (HPC) 106 % of control | dose: 100.0 mg/kg/injection, schedule: Q01DX005 (ip), vehicle: Klucel (hydroxypropylcellulose) (HPC) 95 % of control

CCCCc1ccc2nc(NC(=O)OC)[nH]c2c1
inactive: dose: 200.0 mg/kg/injection, schedule: Q04DX003 (ip), vehicle: other 93 % of control | [7] 96 % of control
active: dose: 100.0 mg/kg/injection, schedule: Q04DX003 (ip), vehicle: other 174 % of control | [6] 169 % of control | dose: 200.0 mg/kg/injection, schedule: Q04DX003 (ip), vehicle: Klucel (hydroxypropylcellulose) (HPC) 160 % of control

O=c1c(N=Nc2ccccc2)c[nH]n1-c1ccccc1
inactive: dose: 62.5 mg/kg/injection, schedule: Q01DX009 (ip), vehicle: saline with Tween-80 90 % of control | dose: 250.0 mg/kg/injection, schedule: Q01DX009 (ip), vehicle: saline with Tween-80 88 % of control

CC(=O)OCC(=O)C1CCC=CC1OC(C)=O (centres undefined)
inactive: dose: 25.0 mg/kg/injection, schedule: Q01DX009 (ip), vehicle: saline 92 % of control | dose: 50.0 mg/kg/injection, schedule: Q01DX009 (ip), vehicle: saline 104 % of control | [15] 95 % of control | dose: 100.0 mg/kg/injection, schedule: Q01DX009 (ip), vehicle: saline 98 % of control | [13] 101 % of control | dose: 200.0 mg/kg/injection, schedule: Q01DX009 (ip), vehicle: saline 104 % of control | [14] 98 % of control and 120 % of control | dose: 400.0 mg/kg/injection, schedule: Q01DX009 (ip), vehicle: saline 88 % of control | dose: 400.0 mg/kg/injection, schedule: Q04DX003 (ip), vehicle: saline 93 % of control and 117 % of control

CCOc1nc(OCC)nc(-c2cccn2-c2ccccc2)n1
inactive: dose: 100.0 mg/kg/injection, schedule: Q01DX001 (ip), vehicle: Klucel (hydroxypropylcellulose) (HPC) 100 % of control | [3] 86 % of control | dose: 200.0 mg/kg/injection, schedule: Q01DX001 (ip), vehicle: Klucel (hydroxypropylcellulose) (HPC) 104 % of control | [4] 100 % of control | dose: 400.0 mg/kg/injection, schedule: Q01DX001 (ip), vehicle: Klucel (hydroxypropylcellulose) (HPC) 90 % of control | [5] 104 % of control

CCOP(=O)(NCCCOC)OCC
inactive: dose: 3.5 mg/kg/injection, schedule: Q01DX009 (ip), vehicle: saline 105 % of control | dose: 7.0 mg/kg/injection, schedule: Q01DX009 (ip), vehicle: saline 120 % of control | dose: 9.0 mg/kg/injection, schedule: Q04DX003 (ip), vehicle: saline 122 % of control | dose: 14.0 mg/kg/injection, schedule: Q01DX009 (ip), vehicle: saline 115 % of control | dose: 14.0 mg/kg/injection, schedule: Q04DX003 (ip), vehicle: saline 104 % of control | dose: 30.0 mg/kg/injection, schedule: Q01DX009 (ip), vehicle: saline 88 % of control | dose: 45.0 mg/kg/injection, schedule: Q01DX009 (ip), vehicle: saline 88 % of control

O=C1c2ccccc2CC1(Br)C(Br)c1ccccc1 (centres undefined)
inactive: [9] 115 % of control | [6] 104 % of control | [10] 108 % of control | [7] 104 % of control | [11] 115 % of control | [8] 103 % of control

CCC1COC(=O)N1 (centres undefined)
inactive: dose: 25.0 mg/kg/injection, schedule: Q04DX003 (ip), vehicle: saline 109 % of control | [15] 104 % of control | [13] 95 % of control

Cc1ccc(C)c(CCO)c1
inactive: dose: 45.0 mg/kg/injection, schedule: Q01DX009 (ip), vehicle: other 105 % of control | [2] 108 % of control | dose: 65.0 mg/kg/injection, schedule: Q01DX009 (ip), vehicle: other 100 % of control | [3] 100 % of control | dose: 100.0 mg/kg/injection, schedule: Q01DX009 (ip), vehicle: other 100 % of control | [6] 109 % of control | dose: 150.0 mg/kg/injection, schedule: Q01DX009 (ip), vehicle: other 105 % of control | [4] 112 % of control | dose: 200.0 mg/kg/injection, schedule: Q01DX009 (ip), vehicle: other 104 % of control and 120 % of control | [7] 109 % of control

— PubChem BioAssay AID328 (DTP/NCI, 2004)
